PubChem BioAssay (NCI)
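Exposure lasted 48 hours, with cells grown in 96-well plates and compounds tested at five concentrations. The concentration for 50% growth inhibition is given as GI50. At the TGI there is no net growth.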

What was measured:
Assay in all cases: NCI anticancer screen, dose series, 48 h
[1] = tested on: 786-0 renal
[2] = tested on: A498 renal
[3] = tested on: A549 NSCLC
[4] = tested on: ACHN renal
[5] = tested on: BT-549 breast
[6] = tested on: CAKI-1 renal
[7] = tested on: CCRF-CEM leukemia
[8] = tested on: COLO 205 colon
[9] = tested on: DU-145 prostate
[10] = tested on: EKVX NSCLC
[11] = tested on: HCC-2998 colon
[12] = tested on: HCT-116 colon
[13] = tested on: HCT-15 colon
[14] = tested on: HL-60(TB) leukemia
[15] = tested on: HOP-62 NSCLC
[16] = tested on: HOP-92 NSCLC
[17] = tested on: HS 578T breast
[18] = tested on: HT29 colon
[19] = tested on: IGROV1 ovarian
[20] = tested on: K-562 leukemia
[21] = tested on: KM12 colon
[22] = tested on: LOX IMVI melanoma
[23] = tested on: M14 melanoma
[24] = tested on: MALME-3M melanoma
[25] = tested on: MCF7 breast
[26] = tested on: MDA-MB-231 breast
[27] = tested on: MDA-MB-435
[28] = tested on: MOLT-4 leukemia
[29] = tested on: NCI-H226 lung
[30] = tested on: NCI-H23 lung
[31] = tested on: NCI-H460 lung
[32] = tested on: NCI-H522 lung
[33] = tested on: NCI/ADR-RES ovarian
[34] = tested on: OVCAR-3 ovarian
[35] = tested on: OVCAR-4 ovarian
[36] = tested on: OVCAR-5 ovarian
[37] = tested on: OVCAR-8 ovarian
[38] = tested on: PC-3 prostate
[39] = tested on: RPMI-8226 leukemia
[40] = tested on: RXF 393 renal
[41] = tested on: SF-268 CNS
[42] = tested on: SF-295 CNS
[43] = tested on: SF-539 CNS
[44] = tested on: SK-MEL-2 melanoma
[45] = tested on: SK-MEL-28 melanoma
[46] = tested on: SK-MEL-5 melanoma
[47] = tested on: SK-OV-3 ovarian
[48] = tested on: SN12C renal
[49] = tested on: SNB-19 CNS
[50] = tested on: SNB-75 CNS
[51] = tested on: SR leukemia
[52] = tested on: SW-620 colon
[53] = tested on: T-47D breast
[54] = tested on: TK-10 renal
[55] = tested on: U251 CNS
[56] = tested on: UACC-257 melanoma
[57] = tested on: UACC-62 melanoma
[58] = tested on: UO-31 renal

COc1ccc([C@H]2[C@H](O)C(=O)N2c2cc(OC)c(OC)c(OC)c2)cc1Cl
GI50 [1]: < 0.0155 µM
TGI [1]: > 100 µM
GI50 [2]: > 59.8 µM
TGI [2]: > 100 µM
GI50 [3]: < 0.0141 µM
TGI [3]: > 100 µM
GI50 [4]: < 0.01 µM
TGI [4]: > 100 µM
GI50 [5]: < 0.0125 µM
TGI [5]: 0.718 µM
GI50 [6]: < 0.01 µM
TGI [6]: > 43.1 µM
GI50 [7]: < 0.01 µM
TGI [7]: > 100 µM
GI50 [8]: < 0.0149 µM
TGI [8]: < 0.0225 µM
GI50 [9]: < 0.0128 µM
TGI [9]: > 100 µM
TGI [10]: > 100 µM
GI50 [11]: < 0.0188 µM
GI50 [12]: < 0.01 µM
TGI [12]: > 62.6 µM
GI50 [13]: < 0.0118 µM
TGI [13]: > 100 µM
GI50 [14]: < 0.01 µM
GI50 [15]: < 0.0114 µM
TGI [15]: > 100 µM
GI50 [16]: 0.828 µM
TGI [16]: > 100 µM
GI50 [17]: < 0.0158 µM
TGI [17]: > 100 µM
GI50 [18]: < 0.01 µM
GI50 [19]: < 0.0111 µM
TGI [19]: > 100 µM
GI50 [20]: < 0.01 µM
TGI [20]: > 100 µM
GI50 [21]: < 0.0113 µM
TGI [21]: > 100 µM
GI50 [22]: < 0.01 µM
TGI [22]: > 100 µM
GI50 [23]: < 0.0128 µM
TGI [23]: > 100 µM
GI50 [24]: < 0.0149 µM
TGI [24]: > 100 µM
GI50 [25]: < 0.01 µM
TGI [25]: > 100 µM
GI50 [26]: < 0.0161 µM
TGI [26]: > 100 µM
GI50 [27]: < 0.01 µM
TGI [27]: < 0.0104 µM
GI50 [28]: < 0.017 µM
TGI [28]: > 100 µM
GI50 [29]: < 0.01 µM
TGI [29]: 50.5 µM
GI50 [30]: 0.0106 µM
TGI [30]: > 100 µM
GI50 [31]: < 0.0127 µM
GI50 [32]: < 0.01 µM
TGI [32]: < 0.0105 µM
GI50 [33]: < 0.0136 µM
GI50 [34]: < 0.01 µM
GI50 [35]: 0.442 µM
TGI [35]: > 100 µM
GI50 [36]: < 0.012 µM
TGI [36]: > 100 µM
GI50 [37]: < 0.0141 µM
GI50 [38]: < 0.0168 µM
TGI [38]: > 100 µM
GI50 [39]: < 0.0112 µM
TGI [39]: > 35.4 µM
GI50 [40]: < 0.01 µM
TGI [40]: > 100 µM
GI50 [41]: < 0.0241 µM
TGI [41]: > 100 µM
GI50 [42]: < 0.01 µM
TGI [42]: > 100 µM
GI50 [43]: < 0.01 µM
GI50 [44]: 0.0319 µM
TGI [44]: > 100 µM
GI50 [45]: < 0.0434 µM
TGI [45]: > 100 µM
GI50 [46]: < 0.01 µM
TGI [46]: 0.0365 µM
GI50 [47]: < 0.0187 µM
TGI [47]: > 100 µM
GI50 [48]: < 0.01 µM
TGI [48]: > 100 µM
GI50 [49]: < 0.0241 µM
TGI [49]: > 100 µM
GI50 [50]: < 0.01 µM
TGI [50]: > 100 µM
GI50 [51]: < 0.01 µM
TGI [51]: > 87.2 µM
GI50 [52]: < 0.01 µM
TGI [52]: > 100 µM
GI50 [53]: > 38.4 µM
TGI [53]: > 100 µM
GI50 [54]: > 100 µM
TGI [54]: > 100 µM
GI50 [55]: 0.0186 µM
TGI [55]: > 100 µM
TGI [56]: > 100 µM
GI50 [57]: < 0.01 µM
TGI [57]: > 100 µM
GI50 [58]: < 0.0192 µM
TGI [58]: > 100 µM

CCC(C)[C@H]1C(=O)O[C@H](C(C)C)C(=O)N(C)[C@@H](C(C)C)C(=O)O[C@H](C(C)C)C(=O)N(C)[C@@H](C(C)C)C(=O)O[C@H](C(C)C)C(=O)N1C (stereo partly drawn)
GI50 [1]: 3.09 µM
TGI [1]: > 10 µM
GI50 [2]: 2.61 µM
TGI [2]: 9.71 µM
GI50 [3]: 3 µM
TGI [3]: > 10 µM
GI50 [4]: 0.788 µM
TGI [4]: > 10 µM
GI50 [5]: 2.5 µM
TGI [5]: > 10 µM
GI50 [7]: 3 µM
TGI [7]: > 10 µM
GI50 [8]: 1.23 µM
TGI [8]: 2.94 µM
GI50 [10]: 2.1 µM
TGI [10]: > 10 µM
GI50 [11]: 2.67 µM
TGI [11]: > 10 µM
GI50 [12]: 2.08 µM
TGI [12]: > 10 µM
GI50 [13]: 2.7 µM
TGI [13]: > 10 µM
GI50 [14]: 2.46 µM
TGI [14]: 5.26 µM
GI50 [15]: 3.52 µM
TGI [15]: > 10 µM
GI50 [16]: 1.21 µM
TGI [16]: 6.01 µM
GI50 [17]: 4.64 µM
TGI [17]: > 10 µM
GI50 [18]: 2.57 µM
TGI [18]: > 10 µM
GI50 [19]: 3.51 µM
TGI [19]: > 10 µM
GI50 [20]: 1.46 µM
TGI [20]: > 10 µM
GI50 [21]: 1.57 µM
TGI [21]: > 10 µM
GI50 [22]: 1.94 µM
TGI [22]: > 10 µM
GI50 [23]: 1.66 µM
TGI [23]: > 10 µM
GI50 [24]: 0.577 µM
TGI [24]: > 10 µM
GI50 [25]: 1.26 µM
TGI [25]: > 10 µM
GI50 [26]: 2.56 µM
TGI [26]: 8.15 µM
GI50 [27]: 2.46 µM
TGI [27]: > 10 µM
GI50 [28]: 3.61 µM
TGI [28]: 9.97 µM
GI50 [29]: 3.62 µM
TGI [29]: > 10 µM
GI50 [30]: 1.68 µM
TGI [30]: > 10 µM
GI50 [31]: 1.65 µM
TGI [31]: > 10 µM
GI50 [32]: 1.61 µM
TGI [32]: > 10 µM
GI50 [33]: 2.12 µM
TGI [33]: > 10 µM
GI50 [34]: 0.704 µM
TGI [34]: > 10 µM
GI50 [35]: 2.01 µM
TGI [35]: > 10 µM
GI50 [36]: 3.21 µM
TGI [36]: > 10 µM
GI50 [37]: 2.11 µM
TGI [37]: > 10 µM
GI50 [38]: 1.56 µM
TGI [38]: > 10 µM
GI50 [39]: 0.457 µM
TGI [39]: 4.93 µM
GI50 [40]: 2.73 µM
TGI [40]: > 10 µM
GI50 [41]: 3.85 µM
TGI [41]: > 10 µM
GI50 [42]: 0.717 µM
TGI [42]: > 10 µM
GI50 [43]: 3.65 µM
TGI [43]: > 10 µM
GI50 [44]: 3.81 µM
TGI [44]: > 10 µM
GI50 [45]: 2.72 µM
TGI [45]: > 10 µM
GI50 [46]: 0.761 µM
TGI [46]: 2.92 µM
GI50 [47]: 2.47 µM
TGI [47]: 7.59 µM
GI50 [48]: 1.72 µM
TGI [48]: > 10 µM
GI50 [49]: 2.07 µM
TGI [49]: > 10 µM
GI50 [50]: 2.75 µM
TGI [50]: > 10 µM
GI50 [51]: 3.67 µM
TGI [51]: > 10 µM
GI50 [52]: 3.1 µM
TGI [52]: > 10 µM
GI50 [53]: 1.08 µM
TGI [53]: 7.81 µM
GI50 [54]: 2.58 µM
TGI [54]: > 10 µM
GI50 [55]: 2.19 µM
TGI [55]: > 10 µM
GI50 [56]: 2.08 µM
TGI [56]: > 10 µM
GI50 [57]: 0.631 µM
TGI [57]: > 10 µM
GI50 [58]: 1.03 µM
TGI [58]: > 10 µM
